These results are taken from patent US8937039B2, “Peptide-based peroxidase inhibitors and methods of using same” (The Medical College of Wisconsin, Inc., priority 2009, dated 2015).

Residues, ends and D or L forms follow the SMILES beside them.

The subject of assay [1] is SCD mice. As to the kind of experiment: Immunofluorescence of aortas of treated SCD mice (chlorotyrosine, MPO). Particulars: KYC IP 0.3 mg/kg/d, three weeks, vs non-treated SCD mice. Format: in vivo, mouse. How it is done: Immunofluorescence Studies. In a separate study, SCD mice were treated with KYC (IP, 0.3 mg/kg/d). After three weeks treatment, mice were deeply anesthetized and euthanized by exsanguination. Thoracic and abdominal aortas were surgically removed and rinsed free of blood elements using ice cold PBS. Aortas were fixed, imbedded in paraffin, and sectioned.

Assay [2] concerns BAEC. Briefly: MPO-mediated BAEC injury (cell morphology). Format: cell-based, bovine. As to conditions: MPO 2.5 μg/ml, H2O2 50 μM. Here is the method:
MPO-mediated BAEC Injury: BAEC (passage 6-8) were cultured in 24 well plates in DMEM containing 10% FBS until 70-80% confluent. The cells were washed with Hank's balanced salt solution (HBSS) 3 times and incubated with MPO (2.5 μg/mL) and H2O2±KYC at the concentrations indicated in HBSS for 30 min. Finally, BAEC were examined visually and images captured for permanent record using a Nikon Eclipse microscope (Model TS 100) fitted with a Nikon Digital Sight DS-U2 camera and NIS-Elements F 3.0 imaging software. Images are representative of 3 independent experiments.
KYC protects BAEC from MPO-induced injury. […] BAEC in 96 well were treated with 100 μl of HBSS containing MPO (2.5 μg/ml) and H2O2 (50 μM) for 20 min with or without KYC. Changes in cell morphology were recorded as described in a previous report by others.

For assay [3], the system named is lung cancer mice. As to the kind of experiment: BHT-treated lung cancer mice (BALF activities, tumor number). The assay is classed as in vivo, mouse. How it is done:
Inhibiting MPO decreases PMN degranulation in lung cancer mice. PMNs are considered to play a causal role in initiating tumor formation. Effects of KYC on PMN recruitment and tumor formation in lung cancer mice were determined. Briefly, mice were treated with BHT (single dose: 300 mg/kg) and KYC (0.3 mg/kg/d).

Setting [4] is: BHT 300 mg/kg single dose, KYC 0.3 mg/kg/d, after 3 days.

With `CC(=O)N[C@@H](CCCCN)C(=O)N[C@@H](Cc1ccc(O)cc1)C(=O)N[C@@H](CS)C(N)=O` [KYC, N-acetyl Lysyltyrosylcysteine Amide] (Ac-Lys-Tyr-Cys-NH2), in assay [1], the “Chlorotyrosine levels in aortas (in words)” value is “reduced” and the “MPO levels in aortas (in words)” value is “reduced”. The “BAEC morphology after MPO/H2O2 (in words)” value in assay [2] (50 μM KYC) is “almost the same morphology as cultures that were not exposed to MPO”. In addition, in assay [2] (20 min, increasing KYC), the “Protection of BAEC from MPO-induced injury (in words)” value was “dose-dependently increased protection”. For the same molecule, the “Decrease of the number of tumors vs untreated mice” value in assay [3] (6 weeks of KYC treatment, p=0.02) is given as roughly 50%. Further, in assay [3] (setting [4]), the “Elastase activity in BALF (in words)” value is reported as “significantly decreased”, the “MPO activity in BALF (in words)” value is listed as “significantly decreased” and the “PMN number in BALF (in words)” value is given as “did not reduce”.
